PMC11589570, “Critical assessment of LC3/GABARAP ligands used for degrader development and ligandability of LC3/GABARAP binding pockets” (Nature Communications, 2024)
Values joined by “and” are separate entries in the source; they are usually repeats but may differ in a detail not shown here. Equal entries are not always repeated.

Tests used:
[1] = tested on: U2OS cells; assay: Cell growth assay (IncuCyte confluence over 72 h); type: cell-based; set-up: key to U2OS cell growth: % of well area covered by cells (confluence)
Experimental: Cell growth assay: Cell confluence (phase) from RPE1 (hTERT RPE-1, ATCC CLR_4000) or U2OS (ATCC, HTB-96) cell lines were monitored over time with the IncuCyte S3 (Sartiorius, Germany) in 384-well plates in 50 ul DMEM media, supplemented with 10% Fetal Bovine Serum (FBS) 1% penicillin/Streptomycin and incubated 24 h before treatment. Experiment was performed as described in Cano-Franco et al.. […] Cell confluence is represented as % of area covered by cells. Each data point represents the average ratio or confluence obtained from three individual wells of the plate.

[2] = tested on: RPE-1 GFP-LC3B-RPF-LC3∆G reporter cell line; assay: Autophagy flux assay; type: cell-based; conditions: rebuttal letter
Source text: LC3/GABARAP in vitro, but no attempts are made to replicate the previously reported cellular activity of these compounds. It would be beneficial to know whether these compounds have any effect on autophagy in the authors’ hands, and therefore could act by alternative mechanisms, or whether they […]
Response: We were very concerned that the ligands used for ATTEC development might induce general toxicity in cell lines, as they are based on drugs used in oncology (such as the kinesin inhibitor 10O5) and the isoxazole scaffold often used in the development of multi-targeted kinase inhibitors. However, we have now investigated compounds 1-4 in autophagy flux assays using the RPE-1 GFP-LC3B-RPF-LC3∆G reporter cell line (single clone) as […]
reported in [PMID:37558952].
(RR_Figure 6). The authors of the first manuscript reporting these ligands [PMID: 31666698]
However, due to the potent activity of 8F20 on KIF11, which will have profound effects on cell trafficking and growth, and DCAF11 (AN1, [PMID: 38036533]), we find it unlikely that the effects on autophagy are due to LC3/GABARAP modulation. Due to the lack of target (LC3/GABARAP) binding in vitro and the […]
of this review but have excluded the data in the manuscript.
RR_figure 5: Autophagy flux measurement for 10O5 and AN2. No induction of autophagy or effects (right panels, assessed by Incucyte (Sartorius) life cell imaging) on cell growth was […]
RR_figure 6: Autophagy flux measurement for 8F20 and AN1 show changes in autophagy flux […]
It is not clear how many biological replicates have been performed. For example, the figure legends […]

[3] = molecular target: LC3A (Homo sapiens, UniProt Q9H492); assay: FP assay with Cy5-labelled p62 LIR tracer (protein titration and tracer displacement); type: binding; conditions: for FP assay result (normalised FP signal): replicates, listed as TH152
[4] = molecular target: LC3B (Homo sapiens, UniProt Q9GZQ8); assay: as above; type: binding; conditions: replicates, listed as TH152

## O=c1cc(-c2ccccc2)c2c(O)cc(O)cc2o1 [compound 2]
[1]; 100 nM, time 0 h, listed as AN2
  U2OS cell growth: 19.1869 and 23.0588 and 16.4621
[1]; 100 nM, time 2 h, listed as AN2
  U2OS cell growth: 26.3735 and 32.6169 and 19.3997
[1]; 100 nM, time 4 h, listed as AN2
  U2OS cell growth: 24.7952 and 30.3994 and 22.748
[1]; 100 nM, time 6 h, listed as AN2
  U2OS cell growth: 35.0609 and 34.7921 and 28.0047
[1]; 500 nM, time 0 h, listed as AN2
  U2OS cell growth: 31.1146 and 31.1409 and 25.529
[1]; 500 nM, time 2 h, listed as AN2
  U2OS cell growth: 37.2793 and 37.1141 and 29.374
[1]; 500 nM, time 4 h, listed as AN2
  U2OS cell growth: 35.0603 and 34.3575 and 27.3746
[1]; 500 nM, time 6 h, listed as AN2
  U2OS cell growth: 41.7549 and 43.2861 and 37.4758
[1]; 500 nM, time 10 h
  U2OS cell growth: 32.7403
[1]; 1 uM, time 0 h, listed as AN2
  U2OS cell growth: 36.01 and 37.7334 and 44.0066
[1]; 1 uM, time 2 h, listed as AN2
  U2OS cell growth: 41.2565 and 41.9214 and 49.8222
[1]; 1 uM, time 4 h, listed as AN2
  U2OS cell growth: 42.1175 and 41.7454 and 46.9501
[1]; 1 uM, time 6 h, listed as AN2
  U2OS cell growth: 43.4595 and 43.9324 and 52.0735
[1]; 1 uM, time 8 h, listed as AN2
  U2OS cell growth: 40.5517 and 44.5898 and 47.4794
[1]; 1 uM, time 10 h, listed as AN2
  U2OS cell growth: 50.4894 and 50.7087 and 57.5735
[1]; 1 uM, time 12 h, listed as AN2
  U2OS cell growth: 52.169
[1]; 3 uM, time 0 h, listed as AN2
  U2OS cell growth: 52.9397 and 44.5639 and 41.1773
[1]; 3 uM, time 2 h, listed as AN2
  U2OS cell growth: 56.1844 and 48.7409 and 42.4981
[1]; 3 uM, time 4 h, listed as AN2
  U2OS cell growth: 62.7365 and 55.2773 and 40.1715
[1]; 3 uM, time 6 h, listed as AN2
  U2OS cell growth: 59.0724 and 50.9181 and 40.9833
[1]; 3 uM, time 8 h, listed as AN2
  U2OS cell growth: 54.8708 and 50.2365 and 43.1088
[1]; 3 uM, time 10 h, listed as AN2
  U2OS cell growth: 58.4454 and 57.5785 and 49.1427
[1]; 3 uM, time 12 h, listed as AN2
  U2OS cell growth: 58.133 and 56.9126
[1]; 5 uM, time 0 h, listed as AN2
  U2OS cell growth: 43.5311 and 39.437 and 42.1256
[1]; 5 uM, time 2 h, listed as AN2
  U2OS cell growth: 49.0024 and 44.0014 and 45.1119
[1]; 5 uM, time 4 h, listed as AN2
  U2OS cell growth: 52.676 and 42.1033 and 45.9331
[1]; 5 uM, time 6 h, listed as AN2
  U2OS cell growth: 55.9501 and 52.2867 and 48.2418
[1]; 5 uM, time 8 h, listed as AN2
  U2OS cell growth: 48.351 and 54.4267 and 50.4706
[1]; 5 uM, time 10 h, listed as AN2
  U2OS cell growth: 60.2478 and 59.3897 and 54.3527
[1]; 10 uM, time 0 h, listed as AN2
  U2OS cell growth: 38.4245 and 29.6214 and 35.113
[1]; 10 uM, time 2 h, listed as AN2
  U2OS cell growth: 42.0042 and 29.7485 and 38.264
[1]; 10 uM, time 4 h, listed as AN2
  U2OS cell growth: 45.9814 and 34.6443 and 44.264
[1]; 10 uM, time 6 h, listed as AN2
  U2OS cell growth: 49.3993 and 33.9992 and 45.6677
[1]; 10 uM, time 8 h, listed as AN2
  U2OS cell growth: 46.5429 and 32.9506 and 41.2472
[1]; 10 uM, time 10 h, listed as AN2
  U2OS cell growth: 49.5589 and 37.0749 and 46.636
[2]
  autophagy induction (autophagy flux): did not induce autophagy
  effects on cell growth (Incucyte life cell imaging): No induction of autophagy or effects

## CCCCCCC(Sc1nc(Cl)cc(Nc2nc(-c3ccc(C(=O)O)cc3)cs2)n1)C(=O)O (stereo not shown) [compound 21]
[3]; LC3A tracer displacement, normalized on p62-LIR positive control
  % tracer bound @LC3A: 26%
[3]; log10 concentration [M] -3.5
  FP assay result (normalised FP signal): 16.9522 and 16.2308 and 9.017 and 3.246
[3]; log10 concentration [M] -4
  FP assay result (normalised FP signal): 23.8052 and 27.7728 and 15.8702 and 10.8206
[3]; log10 concentration [M] -4.5
  FP assay result (normalised FP signal): 40.3968 and 45.4463 and 36.0685 and 29.5762
[3]; log10 concentration [M] -5
  FP assay result (normalised FP signal): 79.7115 and 85.4824 and 71.4157 and 74.3012
[3]; log10 concentration [M] -5.5
  FP assay result (normalised FP signal): 90.532 and 94.4995 and 92.3354 (2×)
[3]; log10 concentration [M] -6
  FP assay result (normalised FP signal): 102.435 and 103.156 and 95.2209 and 98.4671
[3]; log10 concentration [M] -6.5
  FP assay result (normalised FP signal): 94.8602 and 102.795 and 92.3354 and 90.8927
[3]; log10 concentration [M] -7
  FP assay result (normalised FP signal): 102.074 and 100.271 and 99.1885 and 98.4671
[3]; log10 concentration [M] -7.5
  FP assay result (normalised FP signal): 103.877 and 100.271 and 96.6637 and 94.4995
[3]; log10 concentration [M] -8
  FP assay result (normalised FP signal): 101.353 (2×) and 90.1713 and 94.4995
[3]; log10 concentration [M] -8.5
  FP assay result (normalised FP signal): 95.9423 and 95.2209 and 93.4175 and 99.9098
[4]; log10 concentration [M] -3.5
  FP assay result (normalised FP signal): 5.227 and 1.651 and 6.602 and 11.5543
[4]; log10 concentration [M] -4
  FP assay result (normalised FP signal): 15.956 and 18.4319 and 23.3838 and 18.9821
[4]; log10 concentration [M] -4.5
  FP assay result (normalised FP signal): 38.7895 and 39.3398 and 43.1912 and 47.3177
[4]; log10 concentration [M] -5
  FP assay result (normalised FP signal): 78.6795 and 79.2297 and 89.1334 and 88.033
[4]; log10 concentration [M] -5.5
  FP assay result (normalised FP signal): 90.5089 and 85.8322 and 98.2118 and 94.9106
[4]; log10 concentration [M] -6
  FP assay result (normalised FP signal): 92.7098 and 95.4608 and 102.063 and 101.238
[4]; log10 concentration [M] -6.5
  FP assay result (normalised FP signal): 91.0591 and 89.9587 and 97.9367 and 96.8363
[4]; log10 concentration [M] -7
  FP assay result (normalised FP signal): 91.6094 and 98.762 and 103.439 and 102.063
[4]; log10 concentration [M] -7.5
  FP assay result (normalised FP signal): 90.2338 and 98.4869 and 99.3122 and 100.138
[4]; log10 concentration [M] -8
  FP assay result (normalised FP signal): 98.762 and 98.2118 and 100.413 and 102.613
[4]; log10 concentration [M] -8.5
  FP assay result (normalised FP signal): 94.9106 and 100.413 (2×) and 103.439

## CO[C@@H]1[C@@H](OC(N)=O)[C@@H](O)[C@H](Oc2ccc3c(O)c(NC(=O)c4ccc(O)c(CC=C(C)C)c4)c(=O)oc3c2C)OC1(C)C [compound 12, Novobiocin]
[1]; 100 nM, time 10 h
  U2OS cell growth: 31.1029 and 33.4179 and 23.7087
[1]; 100 nM, time 0 h
  U2OS cell growth: 19.136 and 22.8325 and 13.4185
[1]; 100 nM, time 2 h
  U2OS cell growth: 26.0593 and 27.2796 and 22.6674
[1]; 100 nM, time 4 h
  U2OS cell growth: 30.3299 and 25.4304 and 21.2335
[1]; 100 nM, time 6 h
  U2OS cell growth: 27.5347 and 27.1928 and 26.8694
[1]; 100 nM, time 8 h
  U2OS cell growth: 31.7442 and 25.9761 and 21.578
[1]; 500 nM, time 0 h
  U2OS cell growth: 26.2226 and 29.6942 and 26.7407
[1]; 500 nM, time 2 h
  U2OS cell growth: 28.1697 and 29.3576 and 35.4881
[1]; 500 nM, time 4 h
  U2OS cell growth: 24.6559 and 29.8656 and 34.6982
[1]; 500 nM, time 6 h
  U2OS cell growth: 27.3788 and 36.5331 and 38.1104
[1]; 1 uM, time 12 h
  U2OS cell growth: 42.1826
[1]; 1 uM, time 0 h
  U2OS cell growth: 33.676 and 37.1441 and 40.8786
[1]; 1 uM, time 2 h
  U2OS cell growth: 36.3349 and 37.5509 and 45.2384
[1]; 1 uM, time 4 h
  U2OS cell growth: 33.5211 and 30.275 and 38.1541
[1]; 1 uM, time 6 h
  U2OS cell growth: 37.9722 and 40.3217 and 48.2479
[1]; 3 uM, time 10 h
  U2OS cell growth: 50.7454 and 57.0193 and 59.2136
[1]; 3 uM, time 12 h
  U2OS cell growth: 41.453 and 34.0715 and 58.5093
[1]; 3 uM, time 0 h
  U2OS cell growth: 41.5291 and 47.819 and 45.1855
[1]; 3 uM, time 2 h
  U2OS cell growth: 44.8462 and 48.6747 and 48.1364
[1]; 3 uM, time 4 h
  U2OS cell growth: 43.175 and 44.1535 and 45.8798
[1]; 3 uM, time 6 h
  U2OS cell growth: 48.3538 and 51.3151 and 53.1755
[1]; 3 uM, time 8 h
  U2OS cell growth: 48.5002 and 53.1189 and 54.8109
[1]; 5 uM, time 10 h
  U2OS cell growth: 57.6709 and 52.4954 and 56.7999
[1]; 5 uM, time 0 h
  U2OS cell growth: 41.1202 and 38.7556 and 46.8996
[1]; 5 uM, time 2 h
  U2OS cell growth: 48.6568 and 43.7565 and 48.1243
[1]; 5 uM, time 4 h
  U2OS cell growth: 49.6825 and 47.505 and 46.9675
[1]; 5 uM, time 6 h
  U2OS cell growth: 52.2007 and 50.4885 and 57.3887
[1]; 5 uM, time 8 h
  U2OS cell growth: 51.5745 and 47.2991 and 53.416
[1]; 10 uM, time 10 h
  U2OS cell growth: 46.9907 and 34.892 and 44.8825
[1]; 10 uM, time 0 h
  U2OS cell growth: 34.3842 and 28.0059 and 32.3826
[1]; 10 uM, time 2 h
  U2OS cell growth: 40.1489 and 30.903 and 35.6928
[1]; 10 uM, time 4 h
  U2OS cell growth: 42.2655 and 32.6525 and 40.3474
[1]; 10 uM, time 6 h
  U2OS cell growth: 45.1844 and 33.7835 and 42.5534
[1]; 10 uM, time 8 h
  U2OS cell growth: 38.9614 and 32.8145 and 39.1419
